In ChEMBL document CHEMBL1201862, “PubChem BioAssay data set” (2004):
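Cultured in 96-well plates, cells were exposed to test compound for 48 hours across five concentrations. The concentration for 50% growth inhibition is given as GI50.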 Activity calls are given as the source filed them. Rule as the data show it: active = GI50 up to about 1.1 µM and inactive = higher.

Tests used:
Assay in all cases: NCI tumour cell line growth inhibition, 48 h
OVCAR-8 = test system: OVCAR-8
M14 = test system: M14
SW-620 = test system: SW-620
MDA-MB-231 = test system: MDA-MB-231
COLO 205 = test system: COLO 205
RPMI-8226 = test system: RPMI-8226
UO-31 = test system: UO-31
CCRF-CEM = test system: CCRF-CEM
786-0 = test system: 786-0
HT-29 = test system: HT-29
K562 = test system: K562
HOP-62 = test system: HOP-62
SK-MEL-28 = test system: SK-MEL-28
RXF 393 = test system: RXF 393
NCI-H522 = test system: NCI-H522
MOLT-4 = test system: MOLT-4
NCI-H23 = test system: NCI-H23
EKVX = test system: EKVX
SN12C = test system: SN12C
SF-295 = test system: SF-295

Measured: GI50

O=C(CSc1nc2ccc(I)cc2c(=O)n1Cc1ccccc1)NNC(=O)c1ccccc1
inactive: OVCAR-8 8.3 µM | M14 29.3 µM | SW-620 36.1 µM | MDA-MB-231 10.5 µM | COLO 205 18.9 µM | RPMI-8226 3.52 µM | UO-31 1.15 µM | CCRF-CEM 49.7 µM | 786-0 8.97 µM | HT-29 19.8 µM | K562 2.2 µM | HOP-62 8.02 µM | SK-MEL-28 15.4 µM | RXF 393 4.73 µM | NCI-H522 6.4 µM | MOLT-4 11.4 µM | NCI-H23 17.6 µM | EKVX 4.06 µM | SN12C 17.1 µM | SF-295 11.4 µM

Nc1cccc(C2CCCc3c2[nH]c2ccccc32)c1 (stereo not drawn)
inactive: OVCAR-8 17.7 µM | M14 22.3 µM | SW-620 17.4 µM | MDA-MB-231 15.8 µM | COLO 205 19.8 µM | RPMI-8226 19.1 µM | UO-31 26 µM | CCRF-CEM 15.3 µM | 786-0 18.2 µM | HT-29 14.6 µM | K562 13.6 µM | HOP-62 30.5 µM | SK-MEL-28 26.5 µM | RXF 393 15.3 µM | NCI-H522 15.8 µM | MOLT-4 20.6 µM | NCI-H23 19.1 µM | EKVX 18.5 µM | SN12C 17 µM | SF-295 20.8 µM

CC1(C)[C@H]2CC[C@]1(C)[C@H](OC(=O)NNC(=O)O[C@@H]1C[C@@H]3CC[C@@]1(C)C3(C)C)C2
inactive: M14 15.5 µM | SW-620 19.4 µM | MDA-MB-231 13 µM | COLO 205 12.3 µM | RPMI-8226 10.5 µM | UO-31 15 µM | CCRF-CEM 20.3 µM | 786-0 17.8 µM | HT-29 5.7 µM | K562 3.35 µM | HOP-62 14.9 µM | SK-MEL-28 24.3 µM | RXF 393 10.6 µM | NCI-H522 13 µM | MOLT-4 7.29 µM | NCI-H23 14.9 µM | EKVX 12.6 µM | SN12C 12.2 µM | SF-295 13.8 µM

O=C(NNC(=O)c1ccccc1Cl)c1ccccc1O
inactive: OVCAR-8 19.8 µM | M14 39.7 µM | SW-620 71.6 µM | MDA-MB-231 > 100 µM | COLO 205 35.2 µM | RPMI-8226 > 100 µM | UO-31 27.7 µM | CCRF-CEM 44.1 µM | 786-0 87.1 µM | HT-29 23.8 µM | K562 91 µM | HOP-62 31.8 µM | SK-MEL-28 > 100 µM | RXF 393 > 100 µM | NCI-H522 12.2 µM | MOLT-4 57.1 µM | EKVX 16.3 µM | SN12C > 100 µM | SF-295 32.7 µM
